Usually pIC50 stands for −log10 of the IC50, conventionally taken in molar units. By pKi is commonly meant the negative decadic logarithm of the Ki, by convention in mol/L. High values mean a low Ki, low ones a high Ki. As usually defined, the Km is the substrate concentration at which the rate is half of its maximum.

The test system of data set [1] is acetylcholinesterase. Put plainly: Time course inactivation of acetylcholinesterase. Type of data set: biochemical. The source says:
The synthetic preparation of the hydrochloride salt of the tertiary amine inhibitors involves only slight modifications of the general method.

Data set [2] in a line: Solubility, hygroscopicity and stability. The data set is classed as physicochemical.
The target of data set [3] is acetylcholinesterase. Description: Ellman assay for acetylcholinesterase inhibition (enzyme source not given). The settings on record: enzyme source not stated. The data set is classed as biochemical. The source says:
(§1) Ortho-, meta-, and p-chloromethylphenyl choline carbonates are all examples of inhibitors of acetylcholinesterase in accordance with the present invention. Employing the Ellman assay for acetylcholinesterase inhibition [G. L. Ellman, K. D. Courtney, V. Andrews, Jr., and R. M. Featherstone, Biochem. Pharmacol., vol.

The conditions of data set [4]: cited from earlier work.
Data set [5] deals with acetylcholinesterase (Electrophorus electricus, UniProt O42275). Put plainly: Ellman assay for acetylcholinesterase inhibition, IC50 (eel-derived enzyme). Type of data set: biochemical, electric eel.
From the text: as §1
From such competitive inhibitor measurements it was possible to determine an IC50 (proportionate amount necessary to reduce acetylcholinesterase activity by 50%) for various inhibitors [meaning those containing the CH2 X group] in this patent. All IC50 values fell between 8 and 200 uM. The exact value varied with the source of the acetylcholinesterase and quantitative measurements were performed on electric eel and human erythrocyte enzyme. Values reported below are with eel-derived enzyme. [drawing 5] where
For orientation: In Ellman's method for cholinesterases, released thiocholine reacts with DTNB.

Data set [6] deals with acetylcholinesterase. Description: Inhibition and inactivation kinetics of acetylcholinesterase, substrate protection. The data set is classed as biochemical. As to conditions: for Protection against inactivation by substrate acetylcholine: equimolar concentrations of acetylcholine and inhibitor (10 μM each), pre-incubation state.
From the text: as §1
p-Chloromethylphenyl choline carbonate iodide salt is an example of an inhibitor of acetylcholinesterase in accordance with the present invention.

pIC50, pKi: −log10 of the molar value. Where a name gives a salt, the structure may show the parent alone. Read-outs that look alike come from different tables or passages of the source.

Chain of acetylcholinesterase (Electrophorus electricus, UniProt O42275) (O42275 24-633): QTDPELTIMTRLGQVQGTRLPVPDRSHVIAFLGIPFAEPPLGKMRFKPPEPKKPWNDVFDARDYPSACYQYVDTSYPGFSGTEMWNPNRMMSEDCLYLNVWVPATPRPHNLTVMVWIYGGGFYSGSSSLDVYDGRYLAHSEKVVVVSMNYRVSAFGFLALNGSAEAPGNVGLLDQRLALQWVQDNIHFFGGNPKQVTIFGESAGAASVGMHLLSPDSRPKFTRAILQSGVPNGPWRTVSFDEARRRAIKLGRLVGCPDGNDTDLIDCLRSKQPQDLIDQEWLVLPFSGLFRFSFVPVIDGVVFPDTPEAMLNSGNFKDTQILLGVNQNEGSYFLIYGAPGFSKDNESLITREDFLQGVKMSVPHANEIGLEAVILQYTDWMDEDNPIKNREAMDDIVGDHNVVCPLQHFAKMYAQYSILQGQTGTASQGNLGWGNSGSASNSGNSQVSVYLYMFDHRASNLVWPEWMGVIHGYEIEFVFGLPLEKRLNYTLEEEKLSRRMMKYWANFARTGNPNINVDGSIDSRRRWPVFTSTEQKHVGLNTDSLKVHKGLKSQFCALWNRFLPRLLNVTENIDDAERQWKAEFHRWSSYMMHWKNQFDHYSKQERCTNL

Turning to `CN(C)CCOC(=O)Oc1ccc(CCl)cc1`, the “Time course inactivation relative to p-chloromethylphenyl choline carbonate” value in the data set with acetylcholinesterase [1] (compared with p-chloromethylphenyl choline carbonate) was “time course inactivation similar to that for the p-chloromethylphenyl choline carbonate”. In the data set with acetylcholinesterase [1] (deduced from time course data), the “Potency relative to the quaternary compound” value was “as potent as the quaternary compound”. The compound further yielded an Inactivation of acetylcholinesterase in the data set on acetylcholinesterase [1] (first 15 minutes at 40 uM concentration) of 88%. Moreover, in data set [2], the Water solubility result is recorded as “water- soluble”.
In turn, `CC(C)(C)CCOC(=O)Oc1ccc(CCl)cc1` [3,3-dimethylbutyl p-chloromethylphenyl carbonate] gave a negative-log IC50 (pIC50) against acetylcholinesterase [3] of 5.10.
Take `CCOP(=O)(OCC)OP(=O)(OCC)OP(=O)(OCC)OP(=O)(OCC)OCC` (stereo not shown) [hexaethyltetraphosphate]: in data set [4], the “Solubility in petroleum ethers and kerosene” value is “general insolubility”; the “Solubility in water (known inhibitors)” value is “somewhat soluble in water”.
Take `C[N+](C)(C)CCOC(=O)Oc1cccc(CCl)c1` [meta-CH2 Cl]: the pIC50 on acetylcholinesterase [5] was 3.82.
Turning to `C[N+](C)(C)CCOC(=O)Oc1ccccc1CCl` [ortho-CH2 Cl], the negative logarithm of the IC50 (pIC50) against acetylcholinesterase [5] is 4.00.
`C[N+](C)(C)CCOC(=O)Oc1ccc(CCl)cc1` [p-chloromethyl phenyl choline carbonate iodide salt]: at acetylcholinesterase [5] (eel-derived enzyme, Ellman assay, read-out: IC50 (proportionate amount necessary to reduce acetylcholinesterase activity by 50%)), the negative-log IC50 (pIC50) was 4.40. The compound further showed a pKi at acetylcholinesterase [6] (25° C., pH=8 phosphate buffer) of 4.49. Moreover, in the data set on acetylcholinesterase [6] (25° C., pH=8 phosphate buffer), the Km stood at 144 µM. For the same compound, the “Inactivation mode / kinetics” value in the data set on acetylcholinesterase [6] (below inhibitor concentrations of 40 μM) is listed as “time-dependent manner with pseudo first order kinetics”. Also, the “Protection against inactivation by substrate acetylcholine” value with acetylcholinesterase [6] is recorded as “offers partial protection against inactivation”; in the data set on acetylcholinesterase [6] (listed as p-chloromethyl derivative) it was “offers protection against inactivation”. The Hygroscopicity result in data set [2] (solid iodide salt) is on record as “very hygroscopic”.

The record behind these values is patent publication US5082964A, “Selective acetylcholinesterase inhibitors and methods of making and using same” (priority 1986, dated 1992).
